Assay results published in the NIST ThermoML archive (doi:10.1016/j.jct.2016.09.022).

Tests used:
[1] = Liquid; for speed of sound: Frequency=1.5 MHz, Single path-length method; for mass density: 298.15 K, 101.33 kPa, Vibrating tube method
[2] = refractive index (Na D-line) (dimensionless); settings: 298.15 K; 101.33 kPa; Liquid; Standard Abbe refractometry

CCCCCCC [heptane]
speed of sound [m/s], [1]
Settings	283.15 K	293.15 K	303.15 K	313.15 K	323.15 K	333.15 K	343.15 K
100 kPa	1197.2	1153.9	1111.4	1068.8	1025.9	983.91	942.89
5100 kPa	1231.5	1189.6	1148.8	1108.9	1068.6	1028.8	989.64
10100 kPa	1263.8	1223.4	1184.1	1145.2	1107.3	1069.8	1032.5
20100 kPa	1323.2	1284.8	1248.7	1212.3	1176.7	1141.9	1108.4
30100 kPa	1376.7	1340.1	1306.4	1272.1	1239	1206.4	1174.6
40100 kPa	1426.3	1391.5	1359.2	1326.3	1295.3	1264.6	1234.9
50100 kPa	1472.5	1439	1408.5	1377.4	1346.7	1317.4	1289.3
60100 kPa	1515.6	1483.3	1454.5	1424.7	1395.2	1366.6	1339.5
70100 kPa	1556.1	1525.3	1497.4	1468.7	1440.1	1412.9	1387
80100 kPa	1593.8	1564.9	1538.3	1510.3	1482.6	1456	1431.2
90100 kPa	1629.7	1602.3	1577	1549.8	1522.8	1496.7	1472.7
95100 kPa	1646.4	1620.6	1595	1568.8	1542.2	1516.4	1492.7

Settings	mass density [kg/m3]	refractive index
[1]	679.5	–
[2]	–	1.3852

CCCO [propan-1-ol]
speed of sound [m/s], [1]
Settings	283.15 K	293.15 K	303.15 K	313.15 K	323.15 K	333.15 K	343.15 K
100 kPa	1260.3	1223.5	1189.2	1155.3	1121.7	1088.3	1054.4
5100 kPa	1287.8	1252.2	1219.6	1186.7	1153.8	1122.2	1090.2
10100 kPa	1313.7	1279.6	1248.2	1216.4	1184.6	1153.7	1123.4
20100 kPa	1362.3	1330	1300.9	1271.4	1241.7	1212.8	1183.9
30100 kPa	1407.9	1377	1349.1	1320.6	1293	1265.9	1239.2
40100 kPa	1450.3	1420.8	1394.3	1366.8	1340.2	1314.2	1289.2
50100 kPa	1490.2	1461.7	1436.6	1410.1	1384.6	1359.7	1335.5
60100 kPa	1527.4	1500.3	1476.2	1450.6	1426.4	1402.2	1379
70100 kPa	1563.2	1537.2	1513.7	1489.5	1465.1	1441.9	1419.9
80100 kPa	1597.2	1572.1	1549.5	1525.9	1502.3	1479.3	1458.2
90100 kPa	1630	1605.3	1583.6	1560.4	1537.5	1515.2	1497.2
95100 kPa	1645.7	1621.6	1600.1	1577.2	1554.4	1532.6	1512.2

Settings	mass density [kg/m3]	refractive index
[1]	799.5	–
[2]	–	1.383

O [water]
speed of sound [m/s], [1]
Settings	283.15 K	293.15 K	303.15 K	313.15 K	323.15 K	333.15 K	343.15 K
100 kPa	1447.3	–	–	1528.9	–	1551	1554.8
5100 kPa	1455.9	1490.5	1517.5	1537.6	1551.5	1560.1	1565
10100 kPa	1463.8	1498.9	1525.9	1546.1	1560.2	1569.2	1574.4
20100 kPa	1479.9	1515.3	–	1563.2	1577.7	1587.1	1592.8
30100 kPa	1496.2	1531.9	1559.5	1580.3	1595	1604.8	1610.8
40100 kPa	1513.4	1548.6	1576.3	1597.1	1612.2	1622.2	1628.6
50100 kPa	–	1565.3	1593.1	1613.8	1629	1639.3	1646.1
60100 kPa	1548	1582.2	1609.8	1630.4	1645.7	1656.3	1663.9
70100 kPa	1565.4	1599.1	1626.3	1646.9	1662.3	1673.1	1681
80100 kPa	1582.7	1615.8	1642.6	1663.3	1678.3	1689.6	1697.4
90100 kPa	1600.1	1632.4	1659	1679.4	1694.9	1705.9	1714.2
95100 kPa	1608.7	1640.7	1667.3	1687.5	1702.9	1714	1723

Settings	refractive index
[2]	1.3326
